Values quoted from earlier work in patent US20250120404A1, “BOTANICAL PESTICIDE COMPOSITIONS” (Mosquito Squad Franchising SPE LLC, priority 2023, published 2025).

System: mosquitoes
Conditions: average reported toxicity from literature, concentration/biomass

Row | SMILES | Concentration of Oil Extract Necessary for Mosquito Death
1 | CCC(=O)OCCc1ccccc1 [2-phenethyl proprionate] | Varying levels
2 | C=CCc1ccc(O)c(OC)c1 [Eugenol] | Varying levels
3 | CC(C)=CCC/C(C)=C/CO [Geraniol] | Varying levels
